Test results: patent publication US20220267380A1, “Glycopeptides Increasing Lipid Synthesis” (TFCHEM, priority 2019, published 2022)

Key:
[1] = tested on: normal human dermal fibroblasts (NHDF); assay: Signal transduction pathway analysis (Ingenuity Pathway Analysis, activation z-score); conditions: 10 mg/ml
Source text: Signal transduction pathway analysis: the results were then processed with IPA (Ingenuity Pathway Analysis, Qiagen®) software to identify signal transduction pathways modulated by each treatment. This software takes into account the Fold Change values of each gene and, when there is enough information, the direction of modulation of the signal transduction pathways can be identified. The relevance of the effect of each treatment on a given pathway was quantified by z-score. The z-score predicts the directional change on that effect.
A more advanced bioinformatics analysis was performed using the Ingenuity Pathway Analysis software (IPA from Qiagen®). This analysis allows the identification of the impacted signaling pathways and predicts their modulation.

[2] = tested on: normal human dermal fibroblasts (NHDF); assay: Microscopic observations of human dermal fibroblasts in culture (formation of lipid vesicles); assay type: cell-based; conditions: 48 h, vs untreated cells
Description: Normal human dermal fibroblasts (NHDF) were grown with Dulbecco's Modified Eagle
Medium (DMEM) supplemented with Fetal Calf Serum (FCS) 10%, antibiotics (Penicillin 50 U/ml—Streptomycin 50 μg/ml) and L-Glutamine 2 mM final. Cells were grown in 37° C. and 5% CO2 incubator.
Fibroblasts were seeded in 24-well plates and cultured in culture medium for 24 hours. The medium was then replaced by assay medium and cells were incubated for further 24 hours. For the assay, the medium was replaced by assay medium containing or not (control) the test compound at different concentrations. After 48 h the morphological observations were evaluated.

SMILES | result of the analysis of signaling pathways [1] | Activation z-score, synthesis of cholesterol ([1]; positive = stimulation) | Activation z-score, synthesis of lipid ([1]; positive = stimulation) | morphological observation of fibroblasts ([2]; 10 mg/ml) | morphological observation of fibroblasts ([2]; 20 mg/ml) | Activation z-score, Metabolism of cholesterol ([1]; positive = stimulation) | morphological observation of fibroblasts ([2]; 13 mg/ml)
C[C@H](NC(=O)[C@H](C)NC(=O)[C@@H](N)CCCCNCC(F)(F)[C@]1(O)O[C@H](CO)[C@H](O)[C@H](O)[C@H]1O)C(=O)O [Compound 1] | predictive activation of the lipid synthesis and the cholesterol biosynthetic process at a transcriptional level | 2.169 | 2.668 | no effect | induced the formation of lipid vesicles in fibroblasts | – | –
N[C@@H](CCCCNCC(F)(F)[C@]1(O)O[C@H](CO)[C@H](O)[C@H](O)[C@H]1O)C(=O)O [Compound 3] | predictive activation of the lipid synthesis and the cholesterol biosynthetic process at a transcriptional level | 0.399 | 1.002 | – | – | 1.083 | –
CC(=O)N(CCCC[C@H](N)C(=O)O)CC(F)(F)[C@]1(O)O[C@H](CO)[C@H](O)[C@H](O)[C@H]1O [Compound 4] | predictive activation of the fatty acid and lipid synthesis and a stimulation of the adipocytes differentiation | – | – | – | – | – | induces the formation of lipid vesicles in fibroblasts and cell swelling
